{"source": "patent US20120065126A1", "about": "“Pharmaceutical Compositions Containing Antifungal Peptides” (BASF SE, priority 2009, published 2012)", "key": {"C. albicans (DSM 11948)": {"system": "C. albicans (DSM 11948)", "experiment": "P18 in pharmaceutical base formulation (CFU)", "format": "cell-based, Candida albicans", "details": "mixed 1:9 with suspension", "description": "The aim of the experiment was to study the effect of a pharmaceutical base formulation with the P18 peptide ingredient (P18 sequence H-KWKLFKKIPKFLHLAKKF-NH2 (Bachem AG, Switzerland)). For this purpose, the following base formulation was used: […]\n1% hydroxycellulose 10% propylene glycol made up with water.\nBased on the base formulation, formulations with rising P18 concentrations (500 ppm to 10 000 ppm) were prepared from a 20% concentrate solution.\nThe effect of the formulations on C. albicans (DSM 11948) was studied.\nYM growth medium (Becton, Dickinson and Company, Sparks, USA) 3 g of yeast extract 3 g of malt extract 5 g of peptone 10 g of dextrose make up to 1 liter, set pH 6.2\nThe growth test was effected as follows: 5 ml of YM medium were inoculated with C. albicans and incubated at 30° C. and 200 rpm overnight.\n1.5 ml reaction vessels were each filled with 1 ml of YM medium and inoculated with the C. albicans suspension from the overnight culture such that an optical density—measured at 600 nm—of 0.1 was obtained at the start of the experiment. The resulting C. albicans suspension was mixed in a ratio of 1:9 (formulation: C. albicans suspension) with the formulations. 1 μl of the culture was diluted with 20 μl of YM medium after 5 minutes, 10 minutes, 20 minutes and 60 minutes, and then plated out. After incubation over 24 hours, the colonies on the plates were counted."}, "[1]": {"experiment": "Formulability of P18 in shampoo base formulations", "format": "physicochemical", "details": "10 mM P18 in formulations 31-1 and 31-2, 5 mM in 31-3; pH 6-7", "description": "The formulability of the peptide P18 was tested in three different shampoo base formulations. For this purpose, the formulations with the following compositions were first produced:\nThe components were mixed and dissolved. NaOH was used to adjust the pH to pH 6-7. Thereafter, two 100 mM solutions of peptide P18 (P18 sequence H-KWKLFKKIPKFLHLAKKF-NH2) were prepared. DMSO was the solvent for one solution; it was water for the other solution. The appropriate volume of the 100 mM P18 peptide solution was added to each of the formulations, such that the final concentration in formulations 31-1 and 31-2 was 10 mM, and the final concentration of peptide P18 in formulation 31-3 was 5 mM."}, "M. furfur": {"system": "M. furfur", "experiment": "Kinetics of the effect of P18 in the presence of a shampoo base formulation (CFU)", "format": "cell-based, Malassezia furfur", "details": "10% (v/v) shampoo base formulation 31-3; 0.23-2.3 g/l; 5 min to 24 h", "description": "The experiments were conducted as follows: [table] The Texapon NSO and Tego Betain L7 components were mixed and dissolved. NaOH was used to adjust the pH to pH 6-7. The growth test was effected as follows: a shake culture containing […]. furfur and incubated with shaking at 30° C. and 200 rpm overnight. A 96-well microtiter plate was filled with 100 μl per well of […]. furfur suspension from the overnight culture. The M. furfur suspension was adjusted at the start of the experiment to an optical density, measured at 600 nm, of 0.1. 10% (v/v) of shampoo base formulation 31-3 was added to the M. furfur suspension. P18 peptide was dissolved with a concentration of 230 g/l in water. […] The microtiter plate was incubated with shaking at 30°."}, "[2]": {"system": "Malassezia furfur strain DSM 6170", "experiment": "Long-term stability of P18 solution, growth test (CFU)", "format": "cell-based", "description": "The studies described hereinafter were conducted on the Malassezia furfur strain DSM 6170.\nSince storage may be necessary over a prolonged period, a 1 mM P18 peptide solution (P18 sequence H-KWKLFKKIPKFLHLAKKF-NH2) was subsequently stored at 37° C. over 12 weeks, and the antifungal activity of the stored solution on Malassezia furfur was compared with the activity of a freshly made up 1 mM P18 peptide solution. This was done using a growth test, which was conducted as follows:\nGrowth medium: M472 Pityrosporum medium according to DSMZ 40 g/1 malt extract 20 g/l ox bile\nThe growth test was effected as follows: a shake culture containing M472 Pityrosporum medium was inoculated with M. furfur and incubated with shaking at 30° C. and 200 rpm overnight.\nA 96-well microtiter plate was filled with 100 μl per well of M472 Pityrosporum medium and inoculated with M. furfur suspension from the overnight culture. The M. furfur suspension was adjusted at the start of the experiment to an optical density, measured at 600 nm, of 0.02. The concentrates of the inhibitor solutions were 1 mM in water.\nThe following growth was compared: • M. furfur suspension without addition of an inhibitor • M. furfur suspension and addition of an aqueous fresh P18 solution with a final concentration of 50 μM • M. furfur suspension and addition of an aqueous fresh P18 solution with a final concentration of 25 μM • M. furfur suspension and addition of a P18 solution which had been stored at 37° C. for 12 weeks with a final concentration of 50 μM • M. furfur suspension and addition of a P18 solution which had been stored at 37° C. for 12 weeks with a final concentration of 25 μM\nThe microtiter plate was incubated with shaking at 30° C.\nThe growth was observed by measuring the optical density over 24 hours. Subsequently, the colony forming units (CFU) were determined by streaking 1 μl and 5 μl of each of the suspensions and, after incubation over 6 days, counting the colonies. The CFU was determined in order to rule out any influence of the biphasic medium, and also the growth form of M. furfur, on the optical density. The experiments were conducted at least in triple determinations."}}, "data": [{"substance": "H-KWKLFKKIPKFLHLAKKF-NH2 [P18, H-KWKLFKKIPKFLHLAKKF-NH2]", "values": [{"measurement": "Colony forming units after the incubation time specified", "setting": "C. albicans (DSM 11948); 10 000 ppm in the formulation, 5 minutes", "value": "0.5 ± 0", "unit": "CFU"}, {"measurement": "Colony forming units after the incubation time specified", "setting": "C. albicans (DSM 11948); 10 000 ppm in the formulation, 10 minutes", "value": "0 ± 0", "unit": "CFU"}, {"measurement": "Colony forming units after the incubation time specified", "setting": "C. albicans (DSM 11948); 10 000 ppm in the formulation, 20 minutes", "value": "0 ± 0", "unit": "CFU"}, {"measurement": "Colony forming units after the incubation time specified", "setting": "C. albicans (DSM 11948); 10 000 ppm in the formulation, 60 minutes", "value": "0 ± 0", "unit": "CFU"}, {"measurement": "Colony forming units after the incubation time specified", "setting": "C. albicans (DSM 11948); 500 ppm in the formulation, 5 minutes", "value": "1484 ± 28", "unit": "CFU"}, {"measurement": "Colony forming units after the incubation time specified", "setting": "C. albicans (DSM 11948); 500 ppm in the formulation, 10 minutes", "value": "1445 ± 38", "unit": "CFU"}, {"measurement": "Colony forming units after the incubation time specified", "setting": "C. albicans (DSM 11948); 500 ppm in the formulation, 20 minutes", "value": "1262 ± 354", "unit": "CFU"}, {"measurement": "Colony forming units after the incubation time specified", "setting": "C. albicans (DSM 11948); 500 ppm in the formulation, 60 minutes", "value": "962 ± 738", "unit": "CFU"}, {"measurement": "Colony forming units after the incubation time specified", "setting": "C. albicans (DSM 11948); 1000 ppm in the formulation, 5 minutes", "value": "863 ± 553", "unit": "CFU"}, {"measurement": "Colony forming units after the incubation time specified", "setting": "C. albicans (DSM 11948); 1000 ppm in the formulation, 10 minutes", "value": "616 ± 76", "unit": "CFU"}, {"measurement": "Colony forming units after the incubation time specified", "setting": "C. albicans (DSM 11948); 1000 ppm in the formulation, 20 minutes", "value": "251 ± 109", "unit": "CFU"}, {"measurement": "Colony forming units after the incubation time specified", "setting": "C. albicans (DSM 11948); 1000 ppm in the formulation, 60 minutes", "value": "3.25 ± 1.8", "unit": "CFU"}, {"measurement": "Colony forming units after the incubation time specified", "setting": "C. albicans (DSM 11948); 2000 ppm in the formulation, 5 minutes", "value": "29 ± 23", "unit": "CFU"}, {"measurement": "Colony forming units after the incubation time specified", "setting": "C. albicans (DSM 11948); 2000 ppm in the formulation, 10 minutes", "value": "3.5 ± 3.5", "unit": "CFU"}, {"measurement": "Colony forming units after the incubation time specified", "setting": "C. albicans (DSM 11948); 2000 ppm in the formulation, 20 minutes", "value": "0.25 ± 0.4", "unit": "CFU"}, {"measurement": "Colony forming units after the incubation time specified", "setting": "C. albicans (DSM 11948); 2000 ppm in the formulation, 60 minutes", "value": "0 ± 0", "unit": "CFU"}, {"measurement": "Colony forming units after the incubation time specified", "setting": "C. albicans (DSM 11948); 5000 ppm in the formulation, 5 minutes", "value": "1 ± 0.7", "unit": "CFU"}, {"measurement": "Colony forming units after the incubation time specified", "setting": "C. albicans (DSM 11948); 5000 ppm in the formulation, 10 minutes", "value": "0 ± 0", "unit": "CFU"}, {"measurement": "Colony forming units after the incubation time specified", "setting": "C. albicans (DSM 11948); 5000 ppm in the formulation, 20 minutes", "value": "0 ± 0", "unit": "CFU"}, {"measurement": "Colony forming units after the incubation time specified", "setting": "C. albicans (DSM 11948); 5000 ppm in the formulation, 60 minutes", "value": "0 ± 0", "unit": "CFU"}, {"measurement": "Appearance of the formulations with P18", "setting": "[1]", "value": "clear and homogenous"}, {"measurement": "Effect compared with zinc pyrithione and climbazole at different contact times", "setting": "M. furfur", "value": "better properties than zinc pyrithione or climbazole"}, {"measurement": "Effect of storage on the activity of the solution", "setting": "[2]; 1 mM P18 peptide solution, 37° C., 12 weeks", "value": "has not affected the activity"}, {"measurement": "Colony forming units (CFU)", "setting": "[2]; aqueous P18 solution (fresh), final conc. 25 μM, incubation 16-18 h", "value": "5 ± 8", "unit": "CFU"}, {"measurement": "Colony forming units (CFU)", "setting": "[2]; aqueous P18 solution (fresh), final conc. 25 μM, incubation 24 h", "value": "1 ± 2", "unit": "CFU"}, {"measurement": "Colony forming units (CFU)", "setting": "[2]; aqueous P18 solution (fresh), final conc. 50 μM, incubation 16-18 h", "value": "0 ± 0", "unit": "CFU"}, {"measurement": "Colony forming units (CFU)", "setting": "[2]; aqueous P18 solution (fresh), final conc. 50 μM, incubation 24 h", "value": "1 ± 1", "unit": "CFU"}, {"measurement": "Colony forming units (CFU)", "setting": "[2]; aqueous P18 solution stored at 37° C. for 12 weeks, final conc. 25 μM, incubation 16-18 h", "value": "6 ± 7", "unit": "CFU"}, {"measurement": "Colony forming units (CFU)", "setting": "[2]; aqueous P18 solution stored at 37° C. for 12 weeks, final conc. 25 μM, incubation 24 h", "value": "5 ± 5", "unit": "CFU"}, {"measurement": "Colony forming units (CFU)", "setting": "[2]; aqueous P18 solution stored at 37° C. for 12 weeks, final conc. 50 μM, incubation 16-18 h", "value": "0 ± 0", "unit": "CFU"}, {"measurement": "Colony forming units (CFU)", "setting": "[2]; aqueous P18 solution stored at 37° C. for 12 weeks, final conc. 50 μM, incubation 24 h", "value": "1 ± 1", "unit": "CFU"}]}]}
